Test results taken from PMC9612383, “Biological Activity of NHC-Gold-Alkynyl Complexes Derived from 3-Hydroxyflavones” (Pharmaceutics, 2022).

Tests used:
S. enterica 25928 = assay: Disk diffusion test; assay type: cell-based; settings: complex 5 μg, 24 h incubation; diameter including disk (6 mm)
Experimental: To evaluate the antibacterial potential of gold derivatives, […] bacterial strains were selected: E. coli, P. aeruginosa, S. enterica, E. faecalis, L. monocytogenes, S. epidermidis, S. aureus. Dis diffusion assay was performed following Clinical & Laboratory Standards Institute (CLSI) recommendations. Active cultures (0.5 McFarland) from all strains were spread onto Mueller–Hinton Agar (MHA, Oxoid, Basingstoke, UK) and disks impregnated with 10 µL of each gold complex or control (DMSO for negative control, phenol for positive control) were placed. Plates were and incubated for 22 h ± 2 h at 37 °C ± 1 °C and then the diameter of the inhibition zone was determined.

[1] = target: thioredoxin reductase (TrxR) (Escherichia coli, UniProt P0A9P4); settings: E. coli cell lysates incubated with complex
Experimental: (§1) For sample preparation, E. coli were lysated by sonication. After ultrasonic homogenization, the lysate was centrifuged 1 min at 13,000 rpm and the pellet was resuspended in extraction buffer. […] Both extraction and reaction buffer consisted of 10 mM Tris-HCl, 1 mM EDTA, 100 mM NaCl and protease inhibitor.

[2] = target: T1, dihydrofolate reductase (DHFR) (Escherichia coli, UniProt P0ABQ4); assay: DHFR activity assay in E. coli lysates; assay type: biochemical; settings: E. coli lysates incubated with complex; p < 0.05
T1 construct: to 0.01–0.03 mg of cell lysate and completed with reaction buffer; endogenous in cells; host or cells: E. coli (lysate)
Experimental: as §1

Caco-2 cells [3] = assay: MTT antiproliferative assay; assay type: cell-based, Human; settings: Caco-2 cell line, 72 h incubation, mean ± SE
Experimental: Human colorectal adenocarcinoma Caco-2 cells were kindly provided by Dr. Edith Brot-Laroche (Universite Pierre et Marie Curie-Paris 6 UMR S872, Les Cordeliers, France) and were maintained in a humidified atmosphere of 5% CO2 at 37 °C in Dulbecco’s Modified Eagles medium (DMEM) (Gibco Invitrogen, Paisley, UK) supplemented with 20% fetal bovine serum, 1% non-essential amino acids, 1% penicillin (1000 U/mL), 1% streptomycin ([…]) and 1% amphotericin (250 U/mL). For treatment, gold complexes were initially dissolved in DMSO to a concentration of 20 mM and then diluted on cell culture without fetal bovine serum to the required work concentrations, which was added 24 h post-seeding. Then, cells were incubated at 37 °C for the required time for each assay.
Cell viability was determined with the 3-(4,5-dimethyl-2-thiazoyl)-2,5-diphenyltetrazolium bromide (MTT) assay as previously described by Mármol et al.. For IC50 calculation, cells were grown in 96-well plates at a density of 4000 cells per well and incubated overnight at standard culture conditions. Then, cells were exposed 72 h to 0–20 μM of each gold complex and changes in absorbance were converted into percentage of growth inhibition in comparison to negative control (DMSO. Absorbance was measured with SPECTROstar Nano (BMG Labtech).

[4] = n-Octanol-water distribution coefficient, shake-flask; assay type: physicochemical; settings: n-octanol / buffered aqueous solution pH 7.4
Experimental: The n-octanol-water coefficients of the complexes were determined as previously reported using a shake-flask method. Buffered-saline distilled water (100 mL, phosphate buffer [PO4^3−] = 10 mM, [NaCl] = 0.15 M, pH 7.4) and n-octanol (100 mL) were shaken for 72 h to allow saturation of both phases. Approximately 1 mg of the complexes was dissolved in 5 mL of the aqueous phase and 5 mL of the organic phase were added, mixing for 10 min. The resulting emulsion was centrifuged to separate the phases. The concentration of the compounds in each phase was determined using UV absorbance spectroscopy. LogP was defined as log{[compound(organic)]/[compound(aqueous)]}.

[5] = target: T2, human recombinant thioredoxin reductase (Homo sapiens, UniProt Q16881); assay: Recombinant human TrxR activity (DTNB); assay type: biochemical; settings: 40 μM of complex; p > 0.05
T2 construct: purchased SIGMA SRP6081
T2 sequence (Q16881 151-649 limits assumed): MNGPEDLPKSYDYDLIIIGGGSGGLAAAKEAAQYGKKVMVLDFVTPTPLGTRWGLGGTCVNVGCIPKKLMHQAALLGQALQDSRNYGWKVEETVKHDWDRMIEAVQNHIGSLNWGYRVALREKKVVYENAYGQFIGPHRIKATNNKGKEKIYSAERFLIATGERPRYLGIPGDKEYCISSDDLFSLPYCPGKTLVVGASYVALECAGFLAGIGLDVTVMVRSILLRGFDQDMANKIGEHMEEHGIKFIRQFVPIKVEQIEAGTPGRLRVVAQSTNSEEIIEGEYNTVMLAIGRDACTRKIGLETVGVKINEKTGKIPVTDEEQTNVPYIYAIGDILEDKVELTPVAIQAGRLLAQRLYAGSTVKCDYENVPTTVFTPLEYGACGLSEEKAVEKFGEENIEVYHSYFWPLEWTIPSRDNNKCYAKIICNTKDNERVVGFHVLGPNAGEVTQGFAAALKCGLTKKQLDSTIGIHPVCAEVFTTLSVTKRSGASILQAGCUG
Experimental: A measurement of human recombinant thioredoxin reductase was performed as previously described by Quero et al.. Briefly, gold complex was dissolved in DMSO at the desired concentrations and was incubated for 45 min with recombinant human TrxR (SIGMA SRP6081) at 37 °C in a 96 well plate. 25 μL of reaction mix, composed by 500 μL PBS pH 7.4, 80 μL 100 mM EDTA pH 7.5, 20 μL 0.05% BSA, 20 mM 100 μL NADPH, and 300 μL distilled H2O, was then added to each well. 25 μL of 20 mM 5,5′-dithiobis(2-nitrobenzoic acid) (DNTB), dissolved in 100% EtOH, were added to start the reaction and changes in absorbance at 405 nm were monitored every 10 s for 6 min. For comparison purposes, the activity of recombinant TrxR in presence of DMSO was used as negative control.

Caco-2 cells [6] = assay: Intracellular ROS levels; assay type: cell-based, Human; settings: Caco-2 cells, 10, 20 and 40 μM, 1 h incubation; p > 0.05
Experimental: Caco-2 cells were grown in 96-well plates (4000 cells/well) and incubated overnight at 5% CO2 and 37 °C. Then, cells were exposed to the required concentration of gold complex for 1 h and total intracellular ROS levels determination was performed as previously described by Sanchez-de-Diego et al..

Sequence of thioredoxin reductase (TrxR) (P0A9P4 whole entry): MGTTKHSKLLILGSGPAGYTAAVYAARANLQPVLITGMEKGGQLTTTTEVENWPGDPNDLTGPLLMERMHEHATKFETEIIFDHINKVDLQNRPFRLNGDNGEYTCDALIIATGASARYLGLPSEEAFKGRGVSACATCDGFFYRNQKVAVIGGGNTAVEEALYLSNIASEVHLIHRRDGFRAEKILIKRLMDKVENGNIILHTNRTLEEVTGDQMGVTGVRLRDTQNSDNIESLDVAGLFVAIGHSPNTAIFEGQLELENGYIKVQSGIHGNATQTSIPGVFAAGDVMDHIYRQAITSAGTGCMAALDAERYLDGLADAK
T1 sequence (P0ABQ4 whole entry): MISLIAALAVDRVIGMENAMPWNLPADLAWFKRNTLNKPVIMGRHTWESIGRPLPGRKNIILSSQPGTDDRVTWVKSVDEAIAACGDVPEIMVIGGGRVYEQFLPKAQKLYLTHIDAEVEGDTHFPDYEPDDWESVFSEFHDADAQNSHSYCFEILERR

Cn1cc[n+](C)[c]1[Au-][C]#CCOc1c(-c2ccc(Br)cc2)oc2ccccc2c1=O [1b, [Au(Lb)(IMe)] (R = Br; IMe = C5H10N2)]
Inhibition Zone (S. enterica 25928): 8.90 ± 1.56 mm
TrxR activity (percentage respect to control) [1]: did not result in a significative reduction of TrxR activity
DHFR activity (percentage respect to control) [2]: significantly decreased DHFR activity
IC50 (Caco-2 cells [3]): 23 ± 2.42 µM
LogP7.4 (distribution coefficient) [4]: 1.32
enzymatic activity of recombinant TrxR [5]: no significant changes
reactive oxygen species (ROS) levels (Caco-2 cells [6]): no significant changes
